From PubChem BioAssay AID2060901 (Molecular Pharmacology Branch, DTP, NCI, 2025)
“And” between values parts separate entries of the source, which are not always exact repeats. Equal values may be shown once.

Test system: 422866-222-R5-J1-PDC complex spheroids viability
Experiment: Anticancer human tumor 422866-222-R5-J1-PDC patient-derived pancreatic adenocarcinoma cell line growth inhibition [RAS]
Details: for viability, T/C: stronger effect = lower value; active means viability on the fitted dose curve at most 10% of control; inactive means the rest
Method in brief: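 Agents were tested in combination matrices in half-log decrements from a top concentration at or near clinical Cmax (10 microM if undetermined). Targets were multi-cell spheroids of tumour lines plus HUVEC and MSC stromal cells.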
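Further: spheroids exposed to compounds for 7 days.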
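Wherever viability, T/C is given: 100% = DMSO vehicle control viability.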

C[C@@H](NC(=O)c1ncnc(N)c1Cl)c1ncc(C(=O)Nc2cc(C(F)(F)F)c(Cl)cn2)s1
> 10000 nM: IC50 (curve of compound)
inactive: viability, T/C (compound 0.0316 µM) 131% and 103% (2×) and 113% | viability, T/C (compound 0.1 µM) 124% and 116% (2×) and 104% | viability, T/C (compound 0.316 µM) 119% [middle of 4 runs] | viability, T/C (compound 1 µM) 118% [middle of 4 runs] | viability, T/C (compound 3.16 µM) 104% (2×) and 83.4% and 92.5% | viability, T/C (compound 10 µM) 76.6% [middle of 4 runs]

CC(=O)OC12COC1CC(O)C1(C)C(=O)C(O)C3=C(C)C(OC(=O)C(O)C(NC(=O)OC(C)(C)C)c4ccccc4)CC(O)(C(OC(=O)c4ccccc4)C21)C3(C)C (centres undefined) + CCn1c(-c2cc(N3CCN(C)CC3)cnc2C(C)OC)c2c3cc(ccc31)-c1csc(n1)CC(NC(=O)C1CC1C)C(=O)N1CCCC(N1)C(=O)OCC(C)(C)C2
< 31.6 nM: IC50 (curve of first compound, second compound 0.000949 µM) | IC50 (curve of first compound, second compound 0.003 µM) | IC50 (curve of first compound, second compound 0.00949 µM) | IC50 (curve of first compound, second compound 0.03 µM) | IC50 (curve of first compound, second compound 0.0949 µM) | IC50 (curve of first compound, second compound 0.3 µM)
inactive: viability, T/C (second compound 0.000949 µM, first compound 0.0316 µM) 23.3% | viability, T/C (second compound 0.000949 µM, first compound 0.1 µM) 25.6% | viability, T/C (second compound 0.000949 µM, first compound 0.316 µM) 26.9% | viability, T/C (second compound 0.000949 µM, first compound 1 µM) 31.8% | viability, T/C (second compound 0.000949 µM, first compound 3.16 µM) 29.4% | viability, T/C (second compound 0.000949 µM, first compound 10 µM) 23.2% | viability, T/C (second compound 0.003 µM, first compound 0.0316 µM) 18.8% | viability, T/C (second compound 0.003 µM, first compound 0.1 µM) 19.6% | viability, T/C (second compound 0.003 µM, first compound 0.316 µM) 18.6% | viability, T/C (second compound 0.003 µM, first compound 1 µM) 20.6% | viability, T/C (second compound 0.003 µM, first compound 3.16 µM) 21.5% | viability, T/C (second compound 0.003 µM, first compound 10 µM) 20.5% | viability, T/C (second compound 0.00949 µM, first compound 0.0316 µM) 14.5% | viability, T/C (second compound 0.00949 µM, first compound 0.1 µM) 15.8% | viability, T/C (second compound 0.00949 µM, first compound 0.316 µM) 16.4% | viability, T/C (second compound 0.00949 µM, first compound 1 µM) 17.7% | viability, T/C (second compound 0.00949 µM, first compound 3.16 µM) 17.3% | viability, T/C (second compound 0.00949 µM, first compound 10 µM) 18.3% | viability, T/C (second compound 0.03 µM, first compound 0.0316 µM) 16.3% | viability, T/C (second compound 0.03 µM, first compound 0.1 µM) 18.6% | viability, T/C (second compound 0.03 µM, first compound 0.316 µM) 16.1% | viability, T/C (second compound 0.03 µM, first compound 1 µM) 17% | viability, T/C (second compound 0.03 µM, first compound 3.16 µM) 16.9% | viability, T/C (second compound 0.03 µM, first compound 10 µM) 19.4% | viability, T/C (second compound 0.0949 µM, first compound 0.0316 µM) 17.9% | viability, T/C (second compound 0.0949 µM, first compound 0.1 µM) 16.5% | viability, T/C (second compound 0.0949 µM, first compound 0.316 µM) 18.7% | viability, T/C (second compound 0.0949 µM, first compound 1 µM) 17.8% | viability, T/C (second compound 0.0949 µM, first compound 3.16 µM) 17% | viability, T/C (second compound 0.0949 µM, first compound 10 µM) 22.1% | viability, T/C (second compound 0.3 µM, first compound 0.0316 µM) 16.7% | viability, T/C (second compound 0.3 µM, first compound 0.1 µM) 17.1% | viability, T/C (second compound 0.3 µM, first compound 0.316 µM) 18.4% | viability, T/C (second compound 0.3 µM, first compound 1 µM) 17.8% | viability, T/C (second compound 0.3 µM, first compound 3.16 µM) 19.9% | viability, T/C (second compound 0.3 µM, first compound 10 µM) 21.5%
